Measured values from patent publication US20030078278A1, “Spiropiperidine compounds as ligands for ORL-1 receptor” (Pfizer Inc., priority 2001, published 2003).
pIC50: −log10 of the molar value.

How the values were obtained:
human Mu receptor = target: T1, human Mu receptor (Homo sapiens, UniProt P35372); assay: μ-Receptor Binding Assay ([3H]DAMGO, SPA); conditions: human Mu receptor transfected CHO-K1 cell membranes, 1.0 nM [3H]DAMGO
T1 construct: expressed in transfected cells; host or cells: CHO-K1
Procedure: μ-Receptor Binding Assay:
The human Mu receptor transfected CHO-K1 cell membranes were incubated for 45 min at 22° C. with 1.0 nM [^3H]DAMGO, 1.0 mg of wheat germ agglutinin-coated SPA beads and various concentrations of test compounds in a final volume of 200 μl of 50 mM Tris-HCl buffer pH 7.4 containing 5 mM MgCl2. Non-specific binding was determined by the addition of 1 μM unlabeled DAMGO. After the reaction, the assay plate was centrifuged at 1,000 rpm for 1 min and then the radioactivity was measured by a Liquid Scintillation Counter.
(§1) Each percent […] binding thus obtained is graphed as a function of compound concentration. A sigmoidal curve is used to determine 50% bindings (i.e., IC50 values).

human ORL1 receptor = target: T2, human ORL1 receptor (Homo sapiens, UniProt P41146); assay: ORL1-Receptor Binding Assay ([3H]nociceptin, SPA)
T2 construct: expressed in transfected cells; host or cells: HEK-293
Procedure: ORL1-Receptor Binding Assay:
The human ORL1 receptor transfected HEK-293 cell membranes were incubated for 45 min at 22° C. with 0.4 nM [^3H]nociceptin, 1.0 mg of wheat germ agglutinin-coated SPA beads and various concentrations of test compounds in a final volume of 200 μl of 50 mM HEPES buffer pH 7.4 containing 10 mM MgCl2 and 1 mM EDTA. Non-specific binding was determined by the addition of 1 μM unlabeled nociceptin. After the reaction, the assay plate was centrifuged at 1,000 rpm for 1 min and then the radioactivity was measured by a Liquid Scintillation Counter.
as §1

T2 sequence (P41146 whole entry): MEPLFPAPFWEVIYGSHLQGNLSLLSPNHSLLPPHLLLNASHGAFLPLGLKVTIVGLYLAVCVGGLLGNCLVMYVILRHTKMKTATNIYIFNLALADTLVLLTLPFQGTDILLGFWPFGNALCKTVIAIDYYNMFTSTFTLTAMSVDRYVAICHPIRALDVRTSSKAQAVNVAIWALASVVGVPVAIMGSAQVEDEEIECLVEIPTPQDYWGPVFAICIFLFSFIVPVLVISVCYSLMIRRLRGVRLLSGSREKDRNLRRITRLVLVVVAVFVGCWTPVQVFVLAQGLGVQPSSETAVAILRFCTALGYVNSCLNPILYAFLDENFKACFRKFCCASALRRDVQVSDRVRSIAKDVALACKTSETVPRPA
T1 sequence (P35372 whole entry): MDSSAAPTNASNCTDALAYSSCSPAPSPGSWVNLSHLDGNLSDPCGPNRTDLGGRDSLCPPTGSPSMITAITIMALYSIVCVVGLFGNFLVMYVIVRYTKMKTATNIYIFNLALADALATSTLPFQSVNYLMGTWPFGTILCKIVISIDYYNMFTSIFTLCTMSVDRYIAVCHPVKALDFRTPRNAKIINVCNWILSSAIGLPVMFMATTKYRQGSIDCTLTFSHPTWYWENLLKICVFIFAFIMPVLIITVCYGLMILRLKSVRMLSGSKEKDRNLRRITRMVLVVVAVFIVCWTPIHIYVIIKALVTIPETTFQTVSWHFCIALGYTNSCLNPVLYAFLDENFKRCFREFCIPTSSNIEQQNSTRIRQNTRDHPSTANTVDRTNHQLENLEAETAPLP

## O=c1oc2ccccc2n1CCCN1CCC2(CCc3ccccc32)CC1 [Example 9, 2,3-Dihydro-1′-[3-(2-oxo-1,3-benzoxazol-3(2H)-yl)propyl]spiro[1H-indene-1,4′-piperidine]]
Human Mu receptor
  pIC50: 6.06
Human ORL1 receptor
  pIC50: 7.05
Human ORL1 receptor; comparison of ORL1 and mu binding assays
  selectivity of binding affinity, ORL-1 receptor versus mu-receptor (in words): selective affinity for ORL-1 receptor over mu-receptor
